Experimental data as given in patent publication US8192962B2, “Processes for detecting toxic substances” (Daikin Industries, Ltd., priority 2001, dated 2012).

Tested on: Stress protein genes
Assay: DNA chip mRNA expression in yeast, stress protein genes (Table 6)
Assay type: cell-based, Saccharomyces cerevisiae S288C
Procedure, shortened: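 Expression change after 2 h toxicant exposure (growth-inhibiting, sub-lethal) of log-phase S. cerevisiae S288C at 25° C. Oligo-dT-purified mRNA was labeled with Cy3-dUTP or Cy5-dUTP and hybridized >12 h at 65° C. to a genome-wide chip; ratio of scanned fluorescence to control.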

[Cl][Hg][Cl] [(3), HgCl2]
The level of expressed mRNA in the presence of chemical substance/The level of expressed mRNA in the absence of chemical substance (yeast gene YAL005C): 7.0
The level of expressed mRNA in the presence of chemical substance/The level of expressed mRNA in the absence of chemical substance (yeast gene YAL015C): 1.7
The level of expressed mRNA in the presence of chemical substance/The level of expressed mRNA in the absence of chemical substance (yeast gene YBL075C): 3.1
The level of expressed mRNA in the presence of chemical substance/The level of expressed mRNA in the absence of chemical substance (yeast gene YBL093C): 0.4
The level of expressed mRNA in the presence of chemical substance/The level of expressed mRNA in the absence of chemical substance (yeast gene YBR044C): 0.7
The level of expressed mRNA in the presence of chemical substance/The level of expressed mRNA in the absence of chemical substance (yeast gene YBR054W): 5.4
The level of expressed mRNA in the presence of chemical substance/The level of expressed mRNA in the absence of chemical substance (yeast gene YBR067C): 2.8
The level of expressed mRNA in the presence of chemical substance/The level of expressed mRNA in the absence of chemical substance (yeast gene YBR072W): 18.4
The level of expressed mRNA in the presence of chemical substance/The level of expressed mRNA in the absence of chemical substance (yeast gene YBR126C): 5.6
The level of expressed mRNA in the presence of chemical substance/The level of expressed mRNA in the absence of chemical substance (yeast gene YBR169C): 3.9
The level of expressed mRNA in the presence of chemical substance/The level of expressed mRNA in the absence of chemical substance (yeast gene YCL035C): 1.5
The level of expressed mRNA in the presence of chemical substance/The level of expressed mRNA in the absence of chemical substance (yeast gene YCR021C): 4.2
The level of expressed mRNA in the presence of chemical substance/The level of expressed mRNA in the absence of chemical substance (yeast gene YCR060W): 0.9
The level of expressed mRNA in the presence of chemical substance/The level of expressed mRNA in the absence of chemical substance (yeast gene YCR083W): 1.5
The level of expressed mRNA in the presence of chemical substance/The level of expressed mRNA in the absence of chemical substance (yeast gene YDL022W): 6.9
The level of expressed mRNA in the presence of chemical substance/The level of expressed mRNA in the absence of chemical substance (yeast gene YDL025C): 3.5
The level of expressed mRNA in the presence of chemical substance/The level of expressed mRNA in the absence of chemical substance (yeast gene YDR033W): 4.6
The level of expressed mRNA in the presence of chemical substance/The level of expressed mRNA in the absence of chemical substance (yeast gene YDR077W): 3.5
The level of expressed mRNA in the presence of chemical substance/The level of expressed mRNA in the absence of chemical substance (yeast gene YDR098C): 1.0
The level of expressed mRNA in the presence of chemical substance/The level of expressed mRNA in the absence of chemical substance (yeast gene YDR155C): 3.2
The level of expressed mRNA in the presence of chemical substance/The level of expressed mRNA in the absence of chemical substance (yeast gene YDR258C): 2.8
The level of expressed mRNA in the presence of chemical substance/The level of expressed mRNA in the absence of chemical substance (yeast gene YDR293C): 1.2
The level of expressed mRNA in the presence of chemical substance/The level of expressed mRNA in the absence of chemical substance (yeast gene YDR436W): 1.1
The level of expressed mRNA in the presence of chemical substance/The level of expressed mRNA in the absence of chemical substance (yeast gene YDR513W): 2.3
The level of expressed mRNA in the presence of chemical substance/The level of expressed mRNA in the absence of chemical substance (yeast gene YDR519W): 1.7
The level of expressed mRNA in the presence of chemical substance/The level of expressed mRNA in the absence of chemical substance (yeast gene YEL030W): 1.9
The level of expressed mRNA in the presence of chemical substance/The level of expressed mRNA in the absence of chemical substance (yeast gene YEL039C): 1.3
The level of expressed mRNA in the presence of chemical substance/The level of expressed mRNA in the absence of chemical substance (yeast gene YER042W): 3.1
The level of expressed mRNA in the presence of chemical substance/The level of expressed mRNA in the absence of chemical substance (yeast gene YER057C): 3.0
The level of expressed mRNA in the presence of chemical substance/The level of expressed mRNA in the absence of chemical substance (yeast gene YER103W): 5.2
The level of expressed mRNA in the presence of chemical substance/The level of expressed mRNA in the absence of chemical substance (yeast gene YER125W): 1.5
The level of expressed mRNA in the presence of chemical substance/The level of expressed mRNA in the absence of chemical substance (yeast gene YFL014W): 5.7
The level of expressed mRNA in the presence of chemical substance/The level of expressed mRNA in the absence of chemical substance (yeast gene YFL016C): 1.6
The level of expressed mRNA in the presence of chemical substance/The level of expressed mRNA in the absence of chemical substance (yeast gene YFL020C): 1.9
The level of expressed mRNA in the presence of chemical substance/The level of expressed mRNA in the absence of chemical substance (yeast gene YFR052W): 1.3
The level of expressed mRNA in the presence of chemical substance/The level of expressed mRNA in the absence of chemical substance (yeast gene YGL073W): 0.9
The level of expressed mRNA in the presence of chemical substance/The level of expressed mRNA in the absence of chemical substance (yeast gene YGL115W): 1.2
The level of expressed mRNA in the presence of chemical substance/The level of expressed mRNA in the absence of chemical substance (yeast gene YGL181W): 1.2
The level of expressed mRNA in the presence of chemical substance/The level of expressed mRNA in the absence of chemical substance (yeast gene YGR088W): 7.7
The level of expressed mRNA in the presence of chemical substance/The level of expressed mRNA in the absence of chemical substance (yeast gene YHL028W): 1.4
The level of expressed mRNA in the presence of chemical substance/The level of expressed mRNA in the absence of chemical substance (yeast gene YHL046C): 2.1
The level of expressed mRNA in the presence of chemical substance/The level of expressed mRNA in the absence of chemical substance (yeast gene YHR030C): 0.6
The level of expressed mRNA in the presence of chemical substance/The level of expressed mRNA in the absence of chemical substance (yeast gene YHR057C): 0.7
The level of expressed mRNA in the presence of chemical substance/The level of expressed mRNA in the absence of chemical substance (yeast gene YHR104W): 15.7
The level of expressed mRNA in the presence of chemical substance/The level of expressed mRNA in the absence of chemical substance (yeast gene YIL011W): 3.9
The level of expressed mRNA in the presence of chemical substance/The level of expressed mRNA in the absence of chemical substance (yeast gene YIL033C): 3.3
The level of expressed mRNA in the presence of chemical substance/The level of expressed mRNA in the absence of chemical substance (yeast gene YIR037W): 2.0
The level of expressed mRNA in the presence of chemical substance/The level of expressed mRNA in the absence of chemical substance (yeast gene YIR038C): 4.6
The level of expressed mRNA in the presence of chemical substance/The level of expressed mRNA in the absence of chemical substance (yeast gene YJL128C): 0.4
The level of expressed mRNA in the presence of chemical substance/The level of expressed mRNA in the absence of chemical substance (yeast gene YJL158C): 2.8
The level of expressed mRNA in the presence of chemical substance/The level of expressed mRNA in the absence of chemical substance (yeast gene YJL159W): 2.8
The level of expressed mRNA in the presence of chemical substance/The level of expressed mRNA in the absence of chemical substance (yeast gene YJL165C): 1.3
The level of expressed mRNA in the presence of chemical substance/The level of expressed mRNA in the absence of chemical substance (yeast gene YJR045C): 3.9
The level of expressed mRNA in the presence of chemical substance/The level of expressed mRNA in the absence of chemical substance (yeast gene YJR090C): 0.6
The level of expressed mRNA in the presence of chemical substance/The level of expressed mRNA in the absence of chemical substance (yeast gene YKL161C): 0.9
The level of expressed mRNA in the presence of chemical substance/The level of expressed mRNA in the absence of chemical substance (yeast gene YKL163W): 3.4
The level of expressed mRNA in the presence of chemical substance/The level of expressed mRNA in the absence of chemical substance (yeast gene YKL164C): 2.5
The level of expressed mRNA in the presence of chemical substance/The level of expressed mRNA in the absence of chemical substance (yeast gene YKL210W): 2.7
The level of expressed mRNA in the presence of chemical substance/The level of expressed mRNA in the absence of chemical substance (yeast gene YKR053C): 1.0
The level of expressed mRNA in the presence of chemical substance/The level of expressed mRNA in the absence of chemical substance (yeast gene YLL024C): 5.3
The level of expressed mRNA in the presence of chemical substance/The level of expressed mRNA in the absence of chemical substance (yeast gene YLL026W): 7.7
The level of expressed mRNA in the presence of chemical substance/The level of expressed mRNA in the absence of chemical substance (yeast gene YLL039C): 1.7
The level of expressed mRNA in the presence of chemical substance/The level of expressed mRNA in the absence of chemical substance (yeast gene YLL060C): 2.3
The level of expressed mRNA in the presence of chemical substance/The level of expressed mRNA in the absence of chemical substance (yeast gene YLR006C): 0.9
The level of expressed mRNA in the presence of chemical substance/The level of expressed mRNA in the absence of chemical substance (yeast gene YLR109W): 6.0
The level of expressed mRNA in the presence of chemical substance/The level of expressed mRNA in the absence of chemical substance (yeast gene YLR259C): 3.1
The level of expressed mRNA in the presence of chemical substance/The level of expressed mRNA in the absence of chemical substance (yeast gene YML007W): 0.9
The level of expressed mRNA in the presence of chemical substance/The level of expressed mRNA in the absence of chemical substance (yeast gene YML070W): 2.5
The level of expressed mRNA in the presence of chemical substance/The level of expressed mRNA in the absence of chemical substance (yeast gene YMR021C): 0.9
The level of expressed mRNA in the presence of chemical substance/The level of expressed mRNA in the absence of chemical substance (yeast gene YMR173W): 3.0
The level of expressed mRNA in the presence of chemical substance/The level of expressed mRNA in the absence of chemical substance (yeast gene YMR186W): 2.0
The level of expressed mRNA in the presence of chemical substance/The level of expressed mRNA in the absence of chemical substance (yeast gene YNL064C): 1.8
The level of expressed mRNA in the presence of chemical substance/The level of expressed mRNA in the absence of chemical substance (yeast gene YNL160W): 10.6
The level of expressed mRNA in the presence of chemical substance/The level of expressed mRNA in the absence of chemical substance (yeast gene YNL241C): 4.3
The level of expressed mRNA in the presence of chemical substance/The level of expressed mRNA in the absence of chemical substance (yeast gene YNR076W): 2.5
The level of expressed mRNA in the presence of chemical substance/The level of expressed mRNA in the absence of chemical substance (yeast gene YOL064C): 1.1
The level of expressed mRNA in the presence of chemical substance/The level of expressed mRNA in the absence of chemical substance (yeast gene YOL161C): 2.4
The level of expressed mRNA in the presence of chemical substance/The level of expressed mRNA in the absence of chemical substance (yeast gene YOR008C): 1.4
The level of expressed mRNA in the presence of chemical substance/The level of expressed mRNA in the absence of chemical substance (yeast gene YOR009W): 3.2
The level of expressed mRNA in the presence of chemical substance/The level of expressed mRNA in the absence of chemical substance (yeast gene YOR010C): 3.2
The level of expressed mRNA in the presence of chemical substance/The level of expressed mRNA in the absence of chemical substance (yeast gene YOR027W): 4.4
The level of expressed mRNA in the presence of chemical substance/The level of expressed mRNA in the absence of chemical substance (yeast gene YOR208W): 1.2
The level of expressed mRNA in the presence of chemical substance/The level of expressed mRNA in the absence of chemical substance (yeast gene YPL059W): 2.6
The level of expressed mRNA in the presence of chemical substance/The level of expressed mRNA in the absence of chemical substance (yeast gene YPL106C): 2.4
The level of expressed mRNA in the presence of chemical substance/The level of expressed mRNA in the absence of chemical substance (yeast gene YPL140C): 0.9
The level of expressed mRNA in the presence of chemical substance/The level of expressed mRNA in the absence of chemical substance (yeast gene YPL194W): 0.4
The level of expressed mRNA in the presence of chemical substance/The level of expressed mRNA in the absence of chemical substance (yeast gene YPL223C): 1.2
The level of expressed mRNA in the presence of chemical substance/The level of expressed mRNA in the absence of chemical substance (yeast gene YPL240C): 2.4
The level of expressed mRNA in the presence of chemical substance/The level of expressed mRNA in the absence of chemical substance (yeast gene YPR005C): 1.5
The level of expressed mRNA in the presence of chemical substance/The level of expressed mRNA in the absence of chemical substance (yeast gene YPR026W): 5.0
